Source: US10487348B2, “3-alpha-hydroxysteroid dehydrogenase mutants and process for the preparation of ursodeoxycholic acid” (Pharmazell GmbH, priority 2014, dated 2019)
Where a chain is given by its changes, count along the chain named.

Columns and labels:
[1] = biological target: T1, Comamonas testosteroni 3α-HSDH dual mutant [L68A/T188A], N-terminal hexahistidine tag (Comamonas testosteroni, UniProt P80702, L68A/T188A)
T1 sequence (P80702 1-257 L68A/T188A): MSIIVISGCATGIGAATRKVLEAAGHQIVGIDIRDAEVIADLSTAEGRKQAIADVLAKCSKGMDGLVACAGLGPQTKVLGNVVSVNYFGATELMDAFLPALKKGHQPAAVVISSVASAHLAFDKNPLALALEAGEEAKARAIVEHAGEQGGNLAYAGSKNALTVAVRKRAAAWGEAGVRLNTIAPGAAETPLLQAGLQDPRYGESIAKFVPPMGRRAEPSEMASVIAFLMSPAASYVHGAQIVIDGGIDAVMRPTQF

[2] = biological target: T2, Comamonas testosteroni 3α-HSDH mutant [T188S], N-terminal hexahistidine tag (Comamonas testosteroni, UniProt P80702, T188S); experiment: Kinetics of 3α-HSDH [T188S], N-terminal His tag
T2 sequence (P80702 1-257 T188S): T1 sequence (P80702 1-257 L68A/T188A) with A68L, A188S

[3] = biological target: T3, Comamonas testosteroni 3α-HSDH, wild type, C-terminal 9×His tag (SEQ ID NO: 51) (Comamonas testosteroni, UniProt P80702); experiment: Michaelis-Menten kinetics of 3α-HSDH with 9×His tag
T3 sequence (P80702 with tags, fused parts or gaps): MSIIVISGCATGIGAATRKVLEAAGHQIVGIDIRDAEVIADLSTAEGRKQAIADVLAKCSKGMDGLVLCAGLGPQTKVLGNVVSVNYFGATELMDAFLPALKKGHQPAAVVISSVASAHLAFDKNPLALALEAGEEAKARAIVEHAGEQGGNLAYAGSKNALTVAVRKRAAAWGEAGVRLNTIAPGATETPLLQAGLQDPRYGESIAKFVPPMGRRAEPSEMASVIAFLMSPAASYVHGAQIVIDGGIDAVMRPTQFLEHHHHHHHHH
Description: The His-tag allows for very simple purification of the HSDH protein since this sequence is bound with high specificity by specific chromatographic material (NTA (Ni-nitrilotriacetate)-modified support material, loaded with divalent nickel ions, for example “His Pur Ni-NTA” (Nimagen B. V., Nijmegen, The Netherlands)). To this end, the cell-free crude extract is applied to a dropping column comprising this material, which dropping column has previously been equilibrated with the disruption buffer (3 to 5 column volumes). Weakly binding protein was removed by washing with 3 to 5 column volumes of wash buffer (20 mM imidazole, 50 mM sodium phosphate, 300 mM NaCl, pH 8). […] The process was carried out at room temperature. The imidazole which was present was to be removed by buffer exchange.
Following expression (25° C., 0.5 mM, IPTG, 20 hours), the protein was purified, and the expression and the purification were checked by means of an SDS gel. […] The NADH concentration was 0.2 mM. Purified protein was employed in the measurements.

[4] = biological target: T4, Comamonas testosteroni 3α-HSDH, wild type, without His tag, SEQ ID NO:4 (Comamonas testosteroni, UniProt P80702); experiment: Michaelis-Menten kinetics of wild-type 3α-HSDH without His tag
T4 sequence (P80702 1-257): T1 sequence (P80702 1-257 L68A/T188A) with A68L, A188T

[5] = biological target: T5, Comamonas testosteroni 3α-HSDH, wild type, N-terminal hexahistidine tag (Comamonas testosteroni, UniProt P80702); experiment: Michaelis-Menten kinetics of wild-type 3α-HSDH with N-terminal His tag; format: biochemical; conditions: Table 14, substrate DHCA, apparent values
T5 sequence (P80702 1-257): T1 sequence (P80702 1-257 L68A/T188A) with A68L, A188T
Description: The His-tag allows for very simple purification of the HSDH protein since this sequence is bound with high specificity by specific chromatographic material (NTA (Ni-nitrilotriacetate)-modified support material, loaded with divalent nickel ions, for example “His Pur Ni-NTA” (Nimagen B. V., Nijmegen, The Netherlands)). To this end, the cell-free crude extract is applied to a dropping column comprising this material, which dropping column has previously been equilibrated with the disruption buffer (3 to 5 column volumes). Weakly binding protein was removed by washing with 3 to 5 column volumes of wash buffer (20 mM imidazole, 50 mM sodium phosphate, 300 mM NaCl, pH 8). The His-tag-3α-HSDH protein was eluted with imidazole-comprising elution buffer (250 mM imidazole, 50 mM sodium phosphate, 300 mM NaCl, pH 8). The process was carried out at room temperature. The imidazole which was present was to be removed by buffer exchange.
The activity of the 3α-HSDH and of the mutants was determined using a photometric assay, where the decrease in absorbance was measured at 340 nm over a period of 30 seconds.
The targeted exchange of amino acid radicals was performed analogously to Example 2B.
Following cultivation and expression, the cells were harvested, and the specific activities of the cell-free crude extracts were determined at substrate concentrations of 10 mM DHCA. […]

[6] = biological target: T6, Comamonas testosteroni 3α-HSDH mutant [P185A], N-terminal hexahistidine tag (Comamonas testosteroni, UniProt P80702, P185A); experiment: Kinetics of 3α-HSDH [P185A], N-terminal His tag
T6 sequence (P80702 1-257 P185A): T1 sequence (P80702 1-257 L68A/T188A) with A68L, P185A, A188T

[7] = Table 14, substrate DHCA, tag N, apparent values
[8] = His tag length 9, DHCA 10 μM-10 mM, NADH 0.2 mM, purified

How did the kcat [1, 7] turn out when `C[C@H](CCC(=O)O)[C@H]1CC[C@H]2[C@@H]3C(=O)C[C@@H]4CC(=O)CC[C@]4(C)[C@H]3CC(=O)[C@]12C` [DHCA, dehydrocholic acid] was run?
Its kcat is 111.1 s⁻¹.

And the vmax [1, 7]?
The vmax was 233.5 ± 12.5 U/mg.

And the remaining activity at 1000 µM ([1]; read-out: residual activity)?
The remaining activity at 1000 µM was 85%.

What about the remaining activity at 10000 µM ([1]; read-out: residual activity) of the same compound?
The remaining activity at 10000 µM was over 20%.

What about the kcat [2, 7] of the same compound?
The kcat was 158.2 s⁻¹.

And the vmax [2, 7]?
Its vmax is 332.5 ± 59.9 U/mg.

And the remaining activity at 20000 µM ([2]; read-out: residual activity)?
The remaining activity at 20000 µM was over 20%.

What about the “KM value better than the variant with 3 histidines” value ([3]; DHCA, 9 vs 3 histidines) of the same compound?
The value was 14 fold.

What about the kcat [3, 8] of the same compound?
Its kcat is 8.9 ± 0.5 s⁻¹.

What about the vmax [3, 8] of the same compound?
Its vmax is 19.2 ± 1.1 U/mg.

And the vmax ([4]; Table 14, substrate DHCA, no tag, apparent values)?
The vmax was 134 ± 3.8 U/mg.

What about the residual activity ([4]; after increasing DHCA further above approximately 1 mM, substrate excess inhibition) of the same compound?
Its residual activity is 10-20%.

And the kcat [5]?
Its kcat is 47.1 s⁻¹.

What about the vmax [5] of the same compound?
The vmax was 98.7 ± 4.7 U/mg.

What about the kcat [6, 7] of the same compound?
Its kcat is 48.5 s⁻¹.

What about the vmax [6, 7] of the same compound?
The vmax was 102.8 ± 5.7 U/mg.

And the remaining activity at 10000 µM ([6]; read-out: residual activity)?
Its remaining activity at 10000 µM is 5%.
